According to the OPERA property sets (Mansouri et al. 2018):

Conditions: not given
With CCCCCCCCCCCCCCCCCCCCC1CCCCC1 the boiling point was 430 °C and the melting point was 48.5 °C.
In the case of Nc1cc(Cl)c(Cl)c(Cl)c1, the melting point is reported as 99 °C.
With Cc1c(NC(=O)c2cccnc2)c(=O)n(-c2ccccc2)n1C the melting point was 253 °C.
For C[C@]12CC[C@H]3[C@@H](CCC4=C(O)C(=O)CC[C@@H]43)[C@@H]1CC[C@@H]2O, the melting point was 189 °C.
CC(C)OC(=O)COc1cc(Cl)c(Cl)cc1Cl showed a melting point of 45 °C.
CC1(C)CCC(C)(C)O1 showed a boiling point of 112 °C.
CC1=CCCC(=O)C1 showed a boiling point of 201 °C and a melting point of -21 °C.
Work on CCCCCCCCCCCCCCCCCC(=O)O yielded a boiling point of 383 °C, a log10 vapour pressure (mmHg) of -6.14 and a melting point of 68.8 °C. For the same compound, the ready biodegradability was “readily biodegradable”.
Work on CC[C@@H]1CCC[C@H]1C yielded a boiling point of 125 °C, a log10 vapour pressure (mmHg) of 1.3 and a melting point of -106 °C.
With O=C1CC(C(=O)O)=CO1 the melting point was 164 °C.
CCCCC1C(=O)NC(=O)N(C2CCCCC2)C1=O (configuration not stated) gave a melting point of 84 °C.
Work on Cc1ccc(C)[nH]1 yielded a boiling point of 171 °C, a log10 vapour pressure (mmHg) of -0.0942 and a melting point of 7.7 °C.
CCCCCC(=NO)C(C)=O gave a melting point of 59 °C.
For C[C@H](CCC(=O)NCC(=O)O)[C@H]1CC[C@H]2[C@@H]3[C@H](O)C[C@@H]4C[C@H](O)CC[C@]4(C)[C@H]3C[C@H](O)[C@]12C, the melting point was 166 °C.
For Cc1cc(Br)cc([N+](=O)[O-])c1, the boiling point was 270 °C and the melting point was 83 °C.
For FC(F)(Br)C(F)(F)C(F)(F)C(F)(F)C(F)(F)C(F)(F)C(F)(F)Br, the boiling point was 159 °C.
Work on CCOCCOC(=O)C(C)Oc1ccc(Oc2ncc(C(F)(F)F)cc2Cl)cc1 (configuration not stated) yielded a log10 vapour pressure (mmHg) of -10.9 and a melting point of 60 °C.
In the case of COP(=S)(OC)Oc1ccc([N+](=O)[O-])cc1, the log10 Henry constant (atm·m³/mol) is reported as -7, the log10 Koc (L/kg) is reported as 3 and the log10 vapour pressure (mmHg) is reported as -5.46. The melting point was 35.5 °C.
c1ccc(CN(Cc2ccccc2)Cc2ccccc2)cc1 showed a boiling point of 385 °C and a melting point of 91.5 °C.
CCOCC1CO1 (configuration not stated) gave a boiling point of 128 °C.
In the case of CCCCCCCCOc1ccc(C(=O)c2ccccc2)c(O)c1, the melting point is reported as 48.5 °C and the ready biodegradability is reported as “not readily biodegradable”.
With O=C1CCC(=O)N1c1ccccc1 the boiling point was 400 °C and the melting point was 156 °C.
For O=C(O)C(F)(F)C(F)(F)C(F)(F)C(F)(F)C(F)(F)C(F)(F)C(F)(F)C(F)(F)C(F)(F)C(F)(F)C(F)(F)C(F)(F)C(F)(F)F, the ready biodegradability was “not readily biodegradable”.
For ClC(c1ccccc1)c1ccccc1, the melting point was 16 °C.
FC(F)=C(F)I gave a boiling point of 30 °C.
Work on COc1cc(C(Cl)(Cl)Cl)cc(Cl)n1 yielded a log10 Koc (L/kg) of 3.48.
For NS(=O)(=O)c1ccc(SCCCCO)c(F)c1, the melting point was 104 °C.
With COc1cc(Cl)c(Cl)cc1OC the melting point was 83 °C.
With Clc1nc2ccccc2s1 the boiling point was 248 °C and the melting point was 24 °C.
With C/C=C(/C(=C/C)c1ccc(O)cc1)c1ccc(O)cc1 the melting point was 228 °C.
Work on COc1cc2cc(c1Cl)N(C)C(=O)C[C@H](OC(=O)[C@H](C)N(C)C(C)=O)[C@]1(C)O[C@H]1[C@H](C)[C@@H]1C[C@@](O)(NC(=O)O1)C(OC)C=CC=C(C)C2 (some centres not stated) yielded a melting point of 172 °C.
Work on CNC(=O)Oc1cccc2c1OC(C)(C)O2 yielded a log10 Koc (L/kg) of 2.75.
CCCC(C)(O)C(C)(C)C (configuration not stated) gave a boiling point of 170 °C.
For c1ccc2c(c1)ccc1cccnc12, the boiling point was 339 °C, the log10 vapour pressure (mmHg) was -3.66 and the melting point was 52 °C.
With CCOC(=O)Nc1ccccc1 the boiling point was 238 °C, the log10 Koc (L/kg) was 1.82 and the melting point was 53 °C.
Sc1ncc[nH]1 gave a melting point of 230 °C.
O=[N+]([O-])c1ccc2c(c1)Cc1cc([N+](=O)[O-])ccc1-2 showed a melting point of 334 °C.
Compound C=COC(=O)C(C)C has a boiling point of 104 °C.
Compound O=C1CCCCC1=O has a boiling point of 194 °C and a melting point of 40 °C.
With O=[N+]([O-])c1cccc2c(Cl)cccc12 the melting point was 111 °C.
Work on CN1CC=C(c2ccccc2)CC1 yielded a melting point of 40 °C.
In the case of O=C(O)C=Cc1cccc(C(F)(F)F)c1, the melting point is reported as 136 °C.
FC(F)CBr gave a boiling point of 57.3 °C and a melting point of -75 °C.
With CCO[Si](CCCN)(OCC)OCC the boiling point was 217 °C and the ready biodegradability was “not readily biodegradable”.
In the case of CCCCNC(=O)COC(=O)c1ccccc1, the melting point is reported as 69.5 °C.
With O=S(=O)(c1ccc(Cl)cc1)c1ccc(Cl)cc1 the melting point was 148 °C and the ready biodegradability was “not readily biodegradable”.
O=C1CCC1 showed a boiling point of 99 °C, a log10 vapour pressure (mmHg) of 1.63 and a melting point of -50.9 °C.
Work on FC(F)(F)C(Cl)C(F)(F)F yielded a boiling point of 14.1 °C and a melting point of -120 °C.
Work on O=c1occcc1O yielded a melting point of 93.8 °C.
In the case of BrCCc1ccccc1, the boiling point is reported as 219 °C, the log10 vapour pressure (mmHg) is reported as -0.612 and the melting point is reported as -65.7 °C.
For COc1cc(/C=C/C(=O)CC(=O)/C=C/c2ccc(O)c(OC)c2)ccc1O, the melting point was 183 °C.
In the case of CCC(Cl)Cl, the boiling point is reported as 88.1 °C and the log10 vapour pressure (mmHg) is reported as 1.83.
With O=C(NCN1CCOCC1)c1cnccn1 the melting point was 118 °C.
With O=C=Nc1cccc2ccccc12 the boiling point was 269 °C.
With C[C@H]1CC(=O)C[C@@H]2CC[C@H]3[C@@H]4CC[C@H](O)[C@@]4(C)CC[C@@H]3[C@]21C the melting point was 204 °C.
For C=CC(=O)OCCCCCCCC, the log10 vapour pressure (mmHg) was -0.994 and the ready biodegradability was “readily biodegradable”.
C=CC(F)(Cl)C(F)(F)Br (configuration not stated) gave a boiling point of 99.5 °C.
With CN(C)NC(=O)CCC(=O)O the log10 Koc (L/kg) was 0.95 and the melting point was 154 °C.
In the case of CCCCCCCCCCCCCCCc1cccc(O)c1, the melting point is reported as 53.5 °C and the ready biodegradability is reported as “readily biodegradable”.
For CCc1cc2ccccc2c2ccccc12, the melting point was 62.5 °C.
For N#Cc1cccc(C#N)c1, the melting point was 162 °C and the ready biodegradability was “not readily biodegradable”.
Compound CCCC(C)(CC)CC has a boiling point of 141 °C.
Compound Cc1ccc(OCC(=O)O)cc1 has a melting point of 141 °C.
In the case of CCCOc1ccc(O)cc1, the melting point is reported as 56.5 °C.
For O=C1OC(=O)[C@H]2[C@@H]1[C@H]1C=C[C@@H]2C1, the melting point was 164 °C.
Work on C[C@H]1C=CC2C(C1)C2(C)C (stereo in doubt) yielded a boiling point of 169 °C.
With CNS(=O)(=O)c1ccc(C)cc1 the melting point was 78.5 °C.
O=C(CCC(=O)OCc1ccccc1)OCc1ccccc1 gave a melting point of 49.5 °C.
With ClCc1cccc(CCl)c1 the boiling point was 252 °C and the melting point was 34.2 °C.
Work on CCC1(C)OCCO1 yielded a boiling point of 116 °C.
O=C(O)c1ccc([N+](=O)[O-])c(O)c1 gave a melting point of 230 °C.
Work on CC1CCSCC1 yielded a boiling point of 159 °C and a melting point of -28 °C.
Compound CCOC(=O)c1ccccc1C(=O)OCC has a boiling point of 295 °C, a log10 Koc (L/kg) of 1.84 and a log10 vapour pressure (mmHg) of -2.68. For the same compound, the melting point was -40.5 °C and the ready biodegradability was “not readily biodegradable”.
CC(C)NCC(O)COc1ccc(CCOCC2CC2)cc1 (configuration not stated) showed a melting point of 71 °C.
In the case of CC(=O)OC(c1ccccc1)C(Cl)(Cl)Cl (configuration not stated), the melting point is reported as 87.5 °C.
In the case of CCCCCCC(O)CCCC (configuration not stated), the boiling point is reported as 229 °C and the melting point is reported as -3.5 °C.
In the case of CCOC(=O)C(F)(F)C(F)(F)F, the melting point is reported as 75.5 °C.
Work on CCC1(N2CCCCC2)C(=O)NC(=O)NC1=O yielded a melting point of 215 °C.
For Clc1cc2oc3c(Cl)c(Cl)c(Cl)cc3c2cc1Cl, the log10 Koa was 10.4, the log10 vapour pressure (mmHg) was -8.58 and the melting point was 196 °C.
Work on COc1ccc2c(=O)c(C)c(-c3ccccc3)oc2c1CN(C)C yielded a melting point of 110 °C.
With NC1=NCCS1 the melting point was 85.3 °C.
With CC(=O)COC(C)=O the boiling point was 171 °C.
In the case of CN=Cc1ccccc1, the boiling point is reported as 185 °C.
CCCC(CC(OCC)OCC)OCC (configuration not stated) showed a melting point of -100 °C.
Cc1ccnc(C)n1 showed a boiling point of 150 °C and a melting point of -4 °C.

Same assay, conditions: fish
For Nc1cc(Cl)c(Cl)c(Cl)c1, the log10 BCF was 2.36 and the log10 biotransformation half-life (days) was 0.28.
COP(=S)(OC)Oc1ccc([N+](=O)[O-])cc1 showed a log10 BCF of 1.93 and a log10 biotransformation half-life (days) of 0.55.
CCCCCCCCOc1ccc(C(=O)c2ccccc2)c(O)c1 gave a log10 BCF of 1.9.
NC(=O)c1c(Cl)c(Cl)c(Cl)c(Cl)c1C(=O)O gave a log10 BCF of 0.49.
CCc1cc2ccccc2c2ccccc12 showed a log10 biotransformation half-life (days) of 0.29.
N#Cc1cccc(C#N)c1 gave a log10 BCF of 0.75 and a log10 biotransformation half-life (days) of -0.62.
In the case of Clc1cc2oc3c(Cl)c(Cl)c(Cl)cc3c2cc1Cl, the log10 BCF is reported as 4.13 and the log10 biotransformation half-life (days) is reported as 1.36.
